# Publication doi:10.1101/2023.10.20.563248v1 (biorxiv, 2023)
# Assays:
# Details in all cases: 1 µM; inhibitor
# [1] = biological target: MKNK2 (Homo sapiens, UniProt Q9HBH9)
# [2] = biological target: PKCnu (Homo sapiens, UniProt O94806)
# [3] = biological target: DCAMKL2 (Homo sapiens, UniProt Q8N568)
# [4] = biological target: GRK4 (Homo sapiens, UniProt P32298)
# [5] = biological target: CDK19 (Homo sapiens, UniProt Q9BWU1)
# [6] = biological target: ROCK1 (Homo sapiens, UniProt Q13464)
# [7] = biological target: CDK1/CycA2 (Homo sapiens, UniProt P06493)
# [8] = biological target: SNARK (Homo sapiens, UniProt Q9H093)
# [9] = biological target: DDR2 (Homo sapiens, UniProt Q16832)
# [10] = biological target: TGFBR1 (Homo sapiens, UniProt P36897)
# [11] = biological target: WNK1 (Homo sapiens, UniProt Q9H4A3)
# [12] = biological target: TYRO3 (Homo sapiens, UniProt Q06418)
# [13] = biological target: TRKA (Homo sapiens, UniProt P04629)
# [14] = biological target: PRKG2 (Homo sapiens, UniProt Q13237)
# [15] = biological target: YES (Homo sapiens, UniProt P07947)
# [16] = biological target: CDK4/CycD2 (Homo sapiens, UniProt P11802)
# [17] = biological target: CK1g3 (Homo sapiens, UniProt Q9Y6M4)
# [18] = biological target: EGFR (Homo sapiens, UniProt P00533)
# [19] = biological target: JAK2 (Homo sapiens, UniProt O60674)
# [20] = biological target: CDK6/CycD2 (Homo sapiens, UniProt Q00534)
# [21] = biological target: ACVR1B (Homo sapiens, UniProt P36896)
# [22] = biological target: MAPKAPK5 (Homo sapiens, UniProt Q8IW41)
# [23] = biological target: CK1g1 (Homo sapiens, UniProt Q9HCP0)
# [24] = biological target: TNK1 (Homo sapiens, UniProt Q13470)
# [25] = biological target: CDK7 (Homo sapiens, UniProt P50613)
# [26] = biological target: TAOK2 (Homo sapiens, UniProt Q9UL54)
# [27] = biological target: NEK2 (Homo sapiens, UniProt P51955)
# [28] = biological target: ROCK2 (Homo sapiens, UniProt O75116)
# [29] = biological target: HIPK2 (Homo sapiens, UniProt Q9H2X6)
# [30] = biological target: FRK (Homo sapiens, UniProt P42685)
# [31] = biological target: NEK7 (Homo sapiens, UniProt Q8TDX7)
# Chain of CDK4/CycD2 (P11802 whole entry): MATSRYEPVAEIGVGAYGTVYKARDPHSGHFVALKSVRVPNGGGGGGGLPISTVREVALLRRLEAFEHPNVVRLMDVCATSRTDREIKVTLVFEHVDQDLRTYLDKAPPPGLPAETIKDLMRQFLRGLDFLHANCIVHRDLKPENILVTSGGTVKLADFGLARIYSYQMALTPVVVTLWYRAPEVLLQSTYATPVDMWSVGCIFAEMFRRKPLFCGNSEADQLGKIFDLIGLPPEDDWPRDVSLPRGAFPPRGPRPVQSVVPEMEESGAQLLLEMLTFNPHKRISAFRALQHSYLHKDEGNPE
# Chain of CDK4/CycD2 (P30279 whole entry partner): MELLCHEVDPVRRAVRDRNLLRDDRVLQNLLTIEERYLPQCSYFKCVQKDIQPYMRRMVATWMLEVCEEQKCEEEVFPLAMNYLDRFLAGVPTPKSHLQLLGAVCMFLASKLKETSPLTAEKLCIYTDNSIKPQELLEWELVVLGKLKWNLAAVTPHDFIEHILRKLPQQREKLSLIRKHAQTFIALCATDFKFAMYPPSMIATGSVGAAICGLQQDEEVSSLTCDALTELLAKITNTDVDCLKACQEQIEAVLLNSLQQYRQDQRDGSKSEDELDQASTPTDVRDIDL
# Chain of EGFR (P00533 whole entry): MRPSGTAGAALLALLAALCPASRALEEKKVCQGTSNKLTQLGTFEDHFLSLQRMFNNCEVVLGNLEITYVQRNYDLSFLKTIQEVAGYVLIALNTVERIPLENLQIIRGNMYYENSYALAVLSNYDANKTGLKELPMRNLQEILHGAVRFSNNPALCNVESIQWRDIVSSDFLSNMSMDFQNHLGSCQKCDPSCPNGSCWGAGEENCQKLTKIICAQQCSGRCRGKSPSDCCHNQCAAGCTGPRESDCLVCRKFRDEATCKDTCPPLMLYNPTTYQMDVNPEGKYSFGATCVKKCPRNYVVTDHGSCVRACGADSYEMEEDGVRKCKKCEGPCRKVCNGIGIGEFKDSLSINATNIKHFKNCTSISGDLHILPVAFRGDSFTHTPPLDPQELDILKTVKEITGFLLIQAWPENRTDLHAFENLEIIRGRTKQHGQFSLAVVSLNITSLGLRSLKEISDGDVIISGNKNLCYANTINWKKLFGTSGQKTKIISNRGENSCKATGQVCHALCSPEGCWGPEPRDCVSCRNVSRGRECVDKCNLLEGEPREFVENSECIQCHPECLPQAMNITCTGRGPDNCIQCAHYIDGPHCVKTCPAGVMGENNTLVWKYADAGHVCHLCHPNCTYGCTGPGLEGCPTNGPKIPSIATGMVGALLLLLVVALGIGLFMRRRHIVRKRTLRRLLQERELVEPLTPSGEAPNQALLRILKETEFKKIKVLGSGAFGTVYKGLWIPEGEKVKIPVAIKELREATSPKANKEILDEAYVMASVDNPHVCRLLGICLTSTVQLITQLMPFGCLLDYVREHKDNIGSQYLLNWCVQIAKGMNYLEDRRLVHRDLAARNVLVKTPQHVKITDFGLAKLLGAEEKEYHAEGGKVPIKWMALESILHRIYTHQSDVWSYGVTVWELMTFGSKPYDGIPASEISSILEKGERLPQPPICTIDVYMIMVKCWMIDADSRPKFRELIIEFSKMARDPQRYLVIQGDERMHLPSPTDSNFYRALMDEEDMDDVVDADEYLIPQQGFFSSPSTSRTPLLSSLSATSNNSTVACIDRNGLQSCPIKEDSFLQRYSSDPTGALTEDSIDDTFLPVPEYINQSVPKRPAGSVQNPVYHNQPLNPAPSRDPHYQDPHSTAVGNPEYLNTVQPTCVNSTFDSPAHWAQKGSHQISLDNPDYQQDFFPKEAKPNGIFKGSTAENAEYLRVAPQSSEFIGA
# Chain of TAOK2 (Q9UL54 whole entry): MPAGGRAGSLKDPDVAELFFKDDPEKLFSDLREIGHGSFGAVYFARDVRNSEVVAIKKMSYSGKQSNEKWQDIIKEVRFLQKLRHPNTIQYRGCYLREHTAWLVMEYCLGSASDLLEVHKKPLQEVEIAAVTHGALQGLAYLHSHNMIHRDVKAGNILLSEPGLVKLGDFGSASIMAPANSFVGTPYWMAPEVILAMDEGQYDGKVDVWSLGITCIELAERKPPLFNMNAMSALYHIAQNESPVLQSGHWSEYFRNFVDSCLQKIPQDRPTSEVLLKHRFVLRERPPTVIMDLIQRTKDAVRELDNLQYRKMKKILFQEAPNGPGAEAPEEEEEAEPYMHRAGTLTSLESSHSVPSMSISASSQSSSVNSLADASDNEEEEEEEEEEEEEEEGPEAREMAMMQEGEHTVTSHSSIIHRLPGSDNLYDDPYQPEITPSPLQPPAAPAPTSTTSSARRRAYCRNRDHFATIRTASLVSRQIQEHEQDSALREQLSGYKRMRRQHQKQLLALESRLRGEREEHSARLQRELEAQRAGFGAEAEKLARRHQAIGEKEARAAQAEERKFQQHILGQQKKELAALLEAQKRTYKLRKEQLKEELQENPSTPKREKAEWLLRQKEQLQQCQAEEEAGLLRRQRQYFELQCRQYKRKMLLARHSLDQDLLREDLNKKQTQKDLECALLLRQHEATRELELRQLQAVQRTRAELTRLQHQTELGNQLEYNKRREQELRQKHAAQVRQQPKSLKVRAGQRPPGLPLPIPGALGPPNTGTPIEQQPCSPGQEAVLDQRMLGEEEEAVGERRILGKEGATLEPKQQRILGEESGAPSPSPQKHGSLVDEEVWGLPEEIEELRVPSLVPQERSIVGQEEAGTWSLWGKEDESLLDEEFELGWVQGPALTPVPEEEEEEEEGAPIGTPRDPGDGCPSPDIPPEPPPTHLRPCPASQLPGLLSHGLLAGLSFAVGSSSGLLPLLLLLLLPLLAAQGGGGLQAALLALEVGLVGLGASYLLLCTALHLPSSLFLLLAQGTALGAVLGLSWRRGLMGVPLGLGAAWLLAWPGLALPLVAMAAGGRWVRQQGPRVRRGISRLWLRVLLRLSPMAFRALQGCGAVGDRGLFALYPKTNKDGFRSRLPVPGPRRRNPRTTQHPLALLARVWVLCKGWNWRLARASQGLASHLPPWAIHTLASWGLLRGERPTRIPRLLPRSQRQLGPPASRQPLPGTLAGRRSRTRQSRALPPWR
# Chain of DDR2 (Q16832 whole entry): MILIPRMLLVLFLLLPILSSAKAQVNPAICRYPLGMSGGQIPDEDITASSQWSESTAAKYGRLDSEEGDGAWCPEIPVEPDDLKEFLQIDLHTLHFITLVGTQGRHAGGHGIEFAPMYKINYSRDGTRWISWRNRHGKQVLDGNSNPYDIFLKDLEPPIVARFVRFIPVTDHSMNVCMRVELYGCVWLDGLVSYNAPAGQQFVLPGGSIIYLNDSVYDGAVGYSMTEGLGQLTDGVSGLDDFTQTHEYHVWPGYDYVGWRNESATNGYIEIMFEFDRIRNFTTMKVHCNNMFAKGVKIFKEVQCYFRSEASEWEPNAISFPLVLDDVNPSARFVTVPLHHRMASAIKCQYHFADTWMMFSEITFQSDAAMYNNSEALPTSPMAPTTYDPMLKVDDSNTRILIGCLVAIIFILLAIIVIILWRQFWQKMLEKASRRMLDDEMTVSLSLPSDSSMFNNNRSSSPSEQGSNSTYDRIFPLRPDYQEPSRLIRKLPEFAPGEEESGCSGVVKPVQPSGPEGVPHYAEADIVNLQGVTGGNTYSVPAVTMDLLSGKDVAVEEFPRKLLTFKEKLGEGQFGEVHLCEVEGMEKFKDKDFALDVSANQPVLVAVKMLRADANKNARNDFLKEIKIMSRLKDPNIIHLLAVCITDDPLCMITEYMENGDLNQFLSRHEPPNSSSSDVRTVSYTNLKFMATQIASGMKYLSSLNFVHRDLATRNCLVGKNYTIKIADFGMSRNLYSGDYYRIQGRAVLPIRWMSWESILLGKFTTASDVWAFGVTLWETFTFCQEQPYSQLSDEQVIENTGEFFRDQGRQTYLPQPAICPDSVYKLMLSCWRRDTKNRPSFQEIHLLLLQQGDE
# Chain of MAPKAPK5 (Q8IW41 whole entry): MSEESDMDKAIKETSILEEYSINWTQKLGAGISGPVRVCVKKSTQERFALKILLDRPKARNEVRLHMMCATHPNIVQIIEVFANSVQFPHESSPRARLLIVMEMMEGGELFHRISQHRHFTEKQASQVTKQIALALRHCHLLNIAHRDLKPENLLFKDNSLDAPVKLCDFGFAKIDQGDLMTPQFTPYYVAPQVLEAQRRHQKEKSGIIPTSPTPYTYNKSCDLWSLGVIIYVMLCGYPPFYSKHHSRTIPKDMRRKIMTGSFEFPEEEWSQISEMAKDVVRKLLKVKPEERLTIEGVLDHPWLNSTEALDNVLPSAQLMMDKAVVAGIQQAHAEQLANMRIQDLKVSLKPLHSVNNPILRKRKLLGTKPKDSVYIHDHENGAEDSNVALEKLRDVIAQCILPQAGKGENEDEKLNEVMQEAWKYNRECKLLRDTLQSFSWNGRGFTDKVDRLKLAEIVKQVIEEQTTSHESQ
# Chain of MKNK2 (Q9HBH9 whole entry): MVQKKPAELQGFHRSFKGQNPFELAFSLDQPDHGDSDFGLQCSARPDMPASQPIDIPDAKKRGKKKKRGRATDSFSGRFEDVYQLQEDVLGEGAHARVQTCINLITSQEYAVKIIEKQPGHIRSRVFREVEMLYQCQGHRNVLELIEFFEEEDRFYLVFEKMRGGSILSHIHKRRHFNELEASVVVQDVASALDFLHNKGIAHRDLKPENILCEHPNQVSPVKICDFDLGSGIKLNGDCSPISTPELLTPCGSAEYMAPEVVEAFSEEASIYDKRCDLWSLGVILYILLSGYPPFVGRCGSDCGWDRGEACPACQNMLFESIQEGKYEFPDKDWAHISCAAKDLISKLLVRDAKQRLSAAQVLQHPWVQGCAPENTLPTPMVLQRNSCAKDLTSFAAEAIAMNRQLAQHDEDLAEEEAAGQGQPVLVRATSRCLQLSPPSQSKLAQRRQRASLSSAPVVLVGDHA
smiles,measurement,setting,value
"O=C1NCCCCCNc2nc(c3ccccc3n2)Nc2cc1[nH]n2 [21c, (Z)-3^1H-2,5,11-triaza-1(4,2)-quinazolina-3(3,5)-pyrazolacycloundecaphan-4-one]","21c Remaining activity, percent of control [%]",[1],105.8%
same,"21c Remaining activity, percent of control [%]",[2],78.1%
same,"21c Remaining activity, percent of control [%]",[3],99.3%
same,"21c Remaining activity, percent of control [%]",[4],112.1%
same,"21c Remaining activity, percent of control [%]",[5],92.8%
same,"21c Remaining activity, percent of control [%]",[6],98.4%
same,"21c Remaining activity, percent of control [%]",[7],91.9%
same,"21c Remaining activity, percent of control [%]",[8],95.6%
same,"21c Remaining activity, percent of control [%]",[9],103.0%
same,"21c Remaining activity, percent of control [%]",[10],124.6%
same,"21c Remaining activity, percent of control [%]",[11],94.9%
same,"21c Remaining activity, percent of control [%]",[12],77.8%
same,"21c Remaining activity, percent of control [%]",[13],90.8%
same,"21c Remaining activity, percent of control [%]",[14],93.5%
same,"21c Remaining activity, percent of control [%]",[15],81.2%
same,"21c Remaining activity, percent of control [%]",[16],106.8%
same,"21c Remaining activity, percent of control [%]",[17],100.8%
same,"21c Remaining activity, percent of control [%]",[18],100.0%
same,"21c Remaining activity, percent of control [%]",[19],96.2%
same,"21c Remaining activity, percent of control [%]",[20],85.8%
same,"21c Remaining activity, percent of control [%]",[21],85.2%
same,"21c Remaining activity, percent of control [%]",[22],110.4%
same,"21c Remaining activity, percent of control [%]",[23],102.2%
same,"21c Remaining activity, percent of control [%]",[24],96.2%
same,"21c Remaining activity, percent of control [%]",[25],112.5%
same,"21c Remaining activity, percent of control [%]",[26],93.6%
same,"21c Remaining activity, percent of control [%]",[27],93.5%
same,"21c Remaining activity, percent of control [%]",[28],89.7%
same,"21c Remaining activity, percent of control [%]",[29],74.8%
same,"21c Remaining activity, percent of control [%]",[30],104.0%
same,"21c Remaining activity, percent of control [%]",[31],98.8%
